From patent US11124479B2, “Oligopyrroles as antagonists of islet amyloid polypeptide oligomerization” (New York University, priority 2017, dated 2021)

What was measured:
[1] = molecular target: T1, islet amyloid polypeptide (IAPP) (Homo sapiens, UniProt P10997); test: Seed-catalyzed ThT kinetic assay of IAPP aggregation; type: biochemical; details: 15 μM IAPP; for relative t50 of seed catalyzed fibrillation: seed 5% v/v, lipid membrane DOPG:DOPC 3:7 750 μM; for factor of retardation of seed catalyzed aggregation kinetics: seed 10% v/v
T1 construct: IAPP is a 37 residue neuropancreatic hormone peptide; purchased Anaspec (Fremont, Calif.)
T1 sequence (P10997 34-70 limits assumed): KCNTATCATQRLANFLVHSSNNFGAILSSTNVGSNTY
Experimental: Seeds of IAPP were prepared by incubating 100 μM of IAPP in phosphate buffer at room temperature and aged for 24 hours. The formation of fibers was confirmed by TEM and ThT stain before storage at −20° C. until use. For the seed catalyzed aggregation kinetics of IAPP, 10% (based on the monomeric IAPP, v/v) seeds were added with ThT in phosphate buffer to the 96-well plate. The aggregation was initiated by the addition of fresh IAPP followed by gentle mixing. Kinetic assays in the presence of the compounds of the invention were conducted under the same conditions except that the compounds were added from a stock solution (1 mM or 10 mM in DMSO) to keep the final concentration of DMSO less than 1.0% (v/v).
The effect of ADH-101 on preformed IAPP oligomers has been investigated. ADH-101 was added during the lag phase of IAPP amyloid kinetics at 1 h and 3 h at an equimolar ratio (IAPP:ADH-101, 1:1, 10 μM IAPP). […] Additionally, ADH-101 has no effect on IAPP amyloid fibers. No change in ThT fluorescence intensity was observed when ADH-101 added to the fibers (FIG. 4, black arrow). […] The kinetics of IAPP fibrillation is dominated by the secondary nucleation which is reflected in the disappearance of the lag phase (FIG. 13). The t50 for the seed catalyzed (5%, v/v) aggregation kinetics of 15 μM IAPP (lipid membrane, DOPG:DOPC, 3:7, 750 μM) is 0.55±0.13 h which is […] faster than the de novo conditions (t50=1.55±0.20 h, FIGS. 13A and 13B). ADH-101 delays the seed catalyzed fibrillation by a relative t50 that is 1.8 fold and 2.6 fold at stoichiometric ratios of 1:1 and 2:1 (ADH-101:IAPP), respectively (FIGS. 13A and 13B). The t50 for the seed catalyzed (10%, v/v) aggregation of 15 μM IAPP is 0.86±0.19 h, which is ˜10 fold faster than the de novo conditions (t50=8.7±0.8 h, FIGS. 13C and 13D). ADH-101 retards the seed catalyzed aggregation kinetics of IAPP by factors of 1.4, 5.4, and 7.1 at stoichiometric ratios of 1:0.1, 1:0.5, and 1:1 (IAPP:ADH-101), respectively (FIGS. 13C and 13D). It is postulated that ADH-101 modulates IAPP conformation and attenuates its ability for oligomerization and fibrillation.

[2] = molecular target: T1, islet amyloid polypeptide (IAPP); test: Transmission electron microscopy (TEM) of IAPP fibers; details: 10 μM IAPP, equimolar ratio
Experimental: […] Aliquots of these samples were then applied to glow-discharged carbon-coated 300-mesh copper grids for 2 min and dried. Grids were negatively stained with uranyl acetate (2%, w/v) and dried. Micrographs of grids were examined on a Phillips CM12 Cryoelectron Microscope equipped with Gatan 4 k×2.7 k CCD camera at 120-kV accelerating voltage.

[3] = molecular target: T2, IAPP-induced lipid membrane leakage (Homo sapiens, UniProt P10997); test: Fluorescein-based liposome leakage assay; type: biochemical
T2 construct: IAPP is a 37 residue neuropancreatic hormone peptide; purchased Anaspec (Fremont, Calif.)
T2 sequence (P10997 34-70 limits assumed): T1 sequence (P10997 34-70 limits assumed)
Excerpt: Colocalization of IAPP at the mitochondrial membrane and the subsequent membrane poration is considered to be one of the potential contributors to β-cell toxicity. Therefore, a liposome leakage assay could serve as a surrogate marker for IAPP induced cytotoxicity (see Last, N. B.; Miranker, A. D. Proc. Natl. Acad. Sci. U.S.A. 2013, 110, 6382-6387; and Last, N. B.; Rhoades, E.; Miranker, A. D. Proc. Natl. Acad. Sci. U.S.A. 2011, 108, 9460-9465). A previously reported fluorescein-based liposome leakage assay was employed to test the effect of ADH-101 on membrane associated α-helical intermediates of IAPP. Briefly, fluorescein-dextran conjugate (MW=70 kDa) was encapsulated in unilamaller extruded lipid vesicles (DOPG:DOPC, 3:7, d=100 nm). The size of fluorescein-dextran conjugate allows it to stay inside the lipid vesicles during IAPP mediated membrane poration. The leakage kinetics was probed by the quenching of fluorescence using a fluorescent quencher, DPX (p-xylene-bis-pyridinium […]). The kinetic profiles of leakage are single exponential with a decrease in fluorescence as a function of time. The leakage reaction was initiated by introducing 200 μM liposome into a solution of 4 μM IAPP and 6 mM of DPX. The introduction of the excess ionic concentration by DPX was counterbalanced by adjusting the buffer concentration. The kinetics of the leakage mediated by IAPP yielded a single exponential profile with a leakage rate of 7.3±1.1×10^−3 s^−1 (FIG. 5A).
The kinetics of liposome leakage induced by IAPP was monitored on QuantaMaster C-61 fluorescence spectrometer (Photon Technology International, Edison, N.J.) at 25° C. […] The stock solution of IAPP used in the measurements was kept in water at a concentration of 1 mM. The stock solution of water soluble quencher, DPX (p-xylene-bis-pyridinium bromide) was prepared in buffer (100 mM KCl, 50 mM NaPi, pH 7.4) at a concentration of 100 mM. The small molecules used in the leakage assay were dissolved in DMSO with a concentration range of 10-20 mM. The final concentration of dye encapsulating liposome, DPX, human IAPP, and small molecules were 200, 6000, 4, and 4 μM respectively. The final buffer concentration was corrected using higher concentration of buffer to keep the osmolality balanced. […] To determine the leakage rate constant, first the fluorescence was normalized and corrected by subtracting it from normalized fluorescence of control reaction. The corrected fluorescence was fit using equation given below (using Origin 9.1). All the experiments were performed in triplicate and the error values presented are standard deviations. a*exp(−b*x)+c (2) a=amplitude from 100% unleaked to 0% leaked c=final fraction of unleaked liposome y=change in fluorescence b=leakage rate constant

[4] = Partition coefficient; type: physicochemical
[5] = molecular target: T1, islet amyloid polypeptide (IAPP); test: ThT-based kinetic assay of IAPP fibrillation; type: biochemical

relative t50 of seed catalyzed fibrillation ([1]; ratio 1:1 (ADH-101:IAPP)): 1.8 fold | relative t50 of seed catalyzed fibrillation ([1]; ratio 2:1 (ADH-101:IAPP)): 2.6 fold | factor of retardation of seed catalyzed aggregation kinetics ([1]; ratio 1:0.1 (IAPP:ADH-101)): 1.4 | factor of retardation of seed catalyzed aggregation kinetics ([1]; ratio 1:0.5 (IAPP:ADH-101)): 5.4 | factor of retardation of seed catalyzed aggregation kinetics ([1]; ratio 1:1 (IAPP:ADH-101)): 7.1 | fiber formation by TEM ([2]; 12 hours): no formation of fibers | fiber formation by TEM ([2]; 24 h): formation of amorphous fibers | leakage rate slower than the control reaction (IAPP only) ([3]; 4 μM IAPP, 4 μM compound, 200 μM liposome): ~3.5 times | effect on the integrity of the liposomes ([3]; ADH-101 alone, 4 μM, no IAPP): did not have any effect | logP [4]: 2.2 | inhibition of IAPP fibrillation when added during the lag phase, compared to premixed (t=0 h) ([5]; added at 1 h and 3 h, equimolar ratio, 10 μM IAPP): equally effective | effect on IAPP amyloid fibers (ThT fluorescence) ([5]; added to the fibers): no effect | factor of delay of IAPP amyloid kinetics ([5]; cholesterol-containing LUVs (30% cholesterol), 15 μM IAPP, equimolar ratio): 3.6
Compound: CCOC(=O)c1cc(NC(=O)c2cc(NC(=O)c3cc([N+](=O)[O-])cn3CC(C)C)cn2CC(C)C)cn1CCC(=O)O [ADH-101]
